# From patent EP0525836B1, “Assay method using novel NAD synthetase” (priority 1986, dated 1988)
# Target: NAD synthetase ( EC 6.3.1.5 ) (Escherichia coli, UniProt P18843)
# Assay: not given
# Conditions: read-out: km-value, literature value; cited from earlier work
# NAD synthetase ( EC 6.3.1.5 ), sequence (P18843 whole entry): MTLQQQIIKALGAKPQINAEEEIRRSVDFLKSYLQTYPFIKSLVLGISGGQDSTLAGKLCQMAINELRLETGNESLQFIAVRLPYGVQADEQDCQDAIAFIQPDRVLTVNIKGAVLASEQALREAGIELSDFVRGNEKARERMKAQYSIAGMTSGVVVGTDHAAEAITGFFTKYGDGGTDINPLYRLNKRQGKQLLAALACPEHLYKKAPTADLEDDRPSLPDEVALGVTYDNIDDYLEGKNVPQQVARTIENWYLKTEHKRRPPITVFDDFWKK
row,Compound,Km [mM]
1,NC(=O)CC[C@H](N)C(=O)O [L-glutamine],16

# Target: T1, NAD synthetase (Geobacillus stearothermophilus ATCC 12980, UniProt A0ACH1E6M2)
# T1 sequence (A0ACH1E6M2 1-246): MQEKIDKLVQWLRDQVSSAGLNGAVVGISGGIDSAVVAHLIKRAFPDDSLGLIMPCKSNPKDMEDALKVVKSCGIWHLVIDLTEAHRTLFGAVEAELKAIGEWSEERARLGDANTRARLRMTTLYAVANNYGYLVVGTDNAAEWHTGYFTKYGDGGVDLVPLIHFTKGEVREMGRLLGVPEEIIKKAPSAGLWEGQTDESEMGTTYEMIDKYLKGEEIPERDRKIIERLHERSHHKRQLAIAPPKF
# Assay: Substrate specificity: ( NH4 ) 2SO4 replaced by amino acids in the enzyme activity assay
# Type: biochemical, Bacillus stearothermophilus H-804
# Conditions: ( NH4 ) 2SO4 25 mM replaced by the amino acid; activity on ( NH4 ) 2SO4 is 100
# Experimental: In any assay method for enzyme activity hereinafter described, ( NH4 ) 2SO4 25 mM may be replaced by L-valine, L-homosirine, L-serine, L-alanine, L-methine, L-tyrosine, L-threonine, L-leucine, L-isolucine, L-arginine, L-phenylalanine, L-histidine, L-asparagine or L-glutamine, and the enzymatic activity measured.
# (§1) • 50 mM Tris-HC ℓ buffer pH 8.0 • 1 mM K C ℓ • 5 mM MgC ℓ 2 • 0.05 % bovine serum albumin • 2 mM ATP • 0.5 mM deamide-NAD • 25 mM ( NH4 )2 SO4
# (§2) • 50 mM Tris-HCℓ buffer pH 8.0 • 10 U diaphorase ( Toyo Jozo Co. from genus Bacillus) • 3 % ethanol • 10 U alcohol dehydrogenase/m ℓ ( Toyo Jozo, yeast ) • 0.025 % NTB ( nitrotetrazolium blue ) • 0.1 % Triton X-100 • 10 mM EDTA
# (§3) Reaction medium I ( 0.3 mℓ ) in a test tube is pre-incubated at 37 °C, and the enzyme solution ( 5 µ ℓ ) is added thereto. The mixture is then incubated at 37 °C for exactly 10 minutes.
# (§4) Reaction medium II ( 0.8 mℓ ) is added thereto to stop the reaction and simultaneously to start the cycling reaction at 37°C for exactly 5 minutes. After stopping the cycling reaction by adding 0.1 N-HC ℓ( 2.0 mℓ) , the absorbency at 550 nm is measured to calculate the enzyme activity. The enzyme activity is calculated by the following equation : NAD synthetase activity ( mU/ m ℓ ) = (ΔA550)/(ΔS550)x(1.0)/(0.005)x(f)/(10) [formula] wherein ΔA: absorbency of specimen, ΔS: absorbency of standard solution ( 0.1 mM NAD ), 0.005: specimen volume ( mℓ ) 10 : reaction time, f : dilution ration.
row,Compound,Relative activity of the enzyme
1,ammonium sulfate [( NH4 ) 2SO4],100

# Same assay, conditions: ( NH4 ) 2SO4 25 mM replaced by the amino acid; activity on ( NH4 ) 2SO4 is 100; read-out: Relative activity of the enzyme
row,Compound,activity at 25000 µM [%]
1,CC(C)[C@H](N)C(=O)O [L-valine],0
2,N[C@@H](CCO)C(=O)O [L-homosirine],0
3,N[C@@H](Cc1ccccc1)C(=O)O [L-phenylalanine],0
4,N[C@@H](CO)C(=O)O [L-serine],0
5,C[C@H](N)C(=O)O [L-alanine],0
6,NC(=O)C[C@H](N)C(=O)O [L-asparagine],0
7,CSCC[C@H](N)C(=O)O [L-methine],0
8,N=C(N)NCCC[C@H](N)C(=O)O [L-arginine],0
9,N[C@@H](Cc1c[nH]cn1)C(=O)O [L-histidine],0
10,C[C@@H](O)[C@H](N)C(=O)O [L-threonine],0
11,N[C@@H](Cc1ccc(O)cc1)C(=O)O [L-tyrosine],0
12,CC[C@H](C)[C@H](N)C(=O)O [L-isolucine],0
13,CC(C)C[C@H](N)C(=O)O [L-leucine],0
14,NC(=O)CC[C@H](N)C(=O)O [L-glutamine],0

# Target: T1, NAD synthetase
# Assay: biochemical
# Type: biochemical, Bacillus stearothermophilus H-804
# Conditions: 5 mM in reaction medium I
# Experimental: In the enzyme activity assay, each metallic ion ( 5 mM ), EDTA ( 20 mM ) or each surface active agent ( 0.1 % ) in Table 1 is added separately to the reaction medium I, and the enzyme activity is measured. […]
# as §1, §2, §3, §4
row,Compound,Effect on enzyme activity
1,NiCℓ2,inhibited

# Same assay, conditions: 20000 µM
row,Compound,Effect on enzyme activity
1,"O=C(O)CN(CCN(CC(=O)O)CC(=O)O)CC(=O)O [EDTA, reference compound]",no activity

# Same assay, conditions: metallic ion 5 mM added to reaction medium I, which contains MgCℓ2 5 mM; no addition = 100; 10 min
row,Compound,Relative activity [%]
1,AℓCℓ3,73.4
2,KNO3,99.2
3,CaCℓ2,48.4
4,BaCℓ2,89.5
5,FeCℓ3,88.4
6,NaNO3,96.8
7,MnCℓ2,54.0
8,CsCℓ,100
9,LiCℓ,100
10,NiCℓ2,7.3
11,NaN3,102.4
12,NaCℓ,102.4

# Same assay, conditions: read-out: Relative activity
row,Compound,activity at 20000 µM [%]
1,"O=C(O)CN(CCN(CC(=O)O)CC(=O)O)CC(=O)O [EDTA, reference compound]",0

# Same assay, conditions: surface active agent 0.1 % added to reaction medium I, which contains MgCℓ2 5 mM; no addition = 100
row,Compound,Relative activity [%]
1,Nonidet P-40,103.9
2,iso-octyl phenoxy polyethyloxy ethanol [Triton X-100],109.6

# Target: T1, NAD synthetase
# Assay: Optimum concentration of metallic ion (Example 8)
# Type: biochemical, Bacillus stearothermophilus H-804
# Conditions: 0.25 to 4 mM tested in reaction medium I without MgCℓ2
# Experimental: Reaction medium I : • 50 mM Tris-HC ℓ buffer pH 8.0 • 10 mM KC ℓ • 2 mM ATP • 0.05 % bovine serum albumin • 0.5 mM deamide-NAD • 25 mM ( NH4 )2SO4
# Reaction medium II: • 50 mM Tris-HC ℓ buffer pH 8.0 • 10 U diaphorase/m ℓ ( Toyo Jozo Co, Bacillus ) • 3 % ethanol • 10 U alcohol dehydrogenase/mℓ (Toyobo Co, yeast) • 0.025 % NTB • 0.1 % Triton X-100 • 10mM EDTA
# To a reaction medium I in a test tube were added 0.25, 0.50, 0.75, 1, 2, 3 and 4 mM MgCℓ2 and 0.25, 0.50, 0.75, 1, 2, 3 and 4 mM MnCℓ2, respectively; each was then treated, after adding the present NAD synthetase solution, according to an assay method as previously illustrated.
# Optimum concentration of MnCℓ2 is at 3mM.
row,Compound,Optimum concentration [mM]
1,MnCℓ2,3
